From paper PMC10913730, “Antimicrobial activity of a natural compound and analogs against multi-drug-resistant Gram-positive pathogens” (Microbiology Spectrum, 2024)
In brackets after ≈: the same amount, converted by molar mass. Where two headings read alike, the source gives them in different places.

How the values were obtained:
MRSA isolates = assay: MIC/MBC, CLSI broth microdilution, MRSA isolates; format: cell-based, Staphylococcus aureus; conditions: Staphylococcus aureus
[1] = pH and Ka of 10-g/L aqueous solutions (pH meter); format: physicochemical; conditions: 10-g/L solution in distilled, deionized water, room temperature
MRSA isolate TCH 1516 = assay: Resistance acquisition during serial passage; format: cell-based, Staphylococcus aureus
Procedure: MRSA isolate TCH 1516 was grown to the stationary phase (OD650 = 1.0) in 10 mL of MH broth. […] The second highest drug concentration resulting in bacterial growth (OD650 >1.0) was used as the inoculum after a 1:1,000 dilution for subsequent steps, every 24 hours, for up to 21 days.

[2] = 39 evaluated MRSA isolates, CLSI broth microdilution, read-out: MBC90
[3] = 39 evaluated MRSA isolates, CLSI broth microdilution, read-out: MIC90
[4] = MRSA, pH 5.5, MRSA 0606, pH 5.5
[5] = MRSA, pH 5.5, MRSA 0608, pH 5.5
[6] = MRSA, pH 5.5, MRSA 0634, pH 5.5
[7] = MRSA, pH 5.5, MRSA 0641, pH 5.5
[8] = MRSA, pH 5.5, MRSA 0646, pH 5.5
[9] = MRSA, pH 6.5, MRSA 0606, pH 6.5
[10] = MRSA, pH 6.5, MRSA 0608, pH 6.5
[11] = MRSA, pH 6.5, MRSA 0634, pH 6.5
[12] = MRSA, pH 6.5, MRSA 0641, pH 6.5
[13] = MRSA, pH 6.5, MRSA 0646, pH 6.5
[14] = MRSA, pH 7.4, MRSA 0606, pH 7.4
[15] = MRSA, pH 7.4, MRSA 0608, pH 7.4
[16] = MRSA, pH 7.4, MRSA 0634, pH 7.4
[17] = MRSA, pH 7.4, MRSA 0641, pH 7.4
[18] = MRSA, pH 7.4, MRSA 0646, pH 7.4

CCCCCCCCCC(=O)N[C@@H](Cc1c[nH]c2ccccc12)C(=O)N[C@H](CC(N)=O)C(=O)N[C@@H](CC(=O)O)C(=O)N[C@@H]1C(=O)NCC(=O)N[C@@H](CCCN)C(=O)N[C@@H](CC(=O)O)C(=O)N[C@H](C)C(=O)N[C@@H](CC(=O)O)C(=O)NCC(=O)N[C@H](CO)C(=O)N[C@@H]([C@H](C)CC(=O)O)C(=O)N[C@@H](CC(=O)c2ccccc2N)C(=O)O[C@@H]1C [Daptomycin, daptomycin, reference compound]
MBC (MRSA isolates; [2]): 2 µg/mL (≈ 1.23 µM) | MIC90 (MRSA isolates; [3]): 2 µg/mL (≈ 1.23 µM)

[Li+].[Li+].[O-]c1c(Cl)cc(Cl)cc1-c1cc(Cl)cc(Cl)c1[O-] [C59Li]
MIC90 (MRSA isolates; MRSA, 39 evaluated MRSA isolates, CLSI broth microdilution): 4 µg/mL | MBC (MRSA isolates; [4]): 0.25 µg/mL | MIC (MRSA isolates; [4]): 0.25 µg/mL | MBC (MRSA isolates; [5]): 0.25 µg/mL | MIC (MRSA isolates; [5]): 0.25 µg/mL | MBC (MRSA isolates; [6]): 0.25 µg/mL | MIC (MRSA isolates; [6]): 0.25 µg/mL | MBC (MRSA isolates; [7]): 0.25 µg/mL | MIC (MRSA isolates; [7]): 0.25 µg/mL | MBC (MRSA isolates; [8]): 0.25 µg/mL | MIC (MRSA isolates; [8]): 0.25 µg/mL | MBC (MRSA isolates; MRSA, pH 5.5, TCH 1516, pH 5.5): 0.25 µg/mL | MIC (MRSA isolates; MRSA, pH 5.5, TCH 1516, pH 5.5): 0.25 µg/mL | MBC (MRSA isolates; MRSA, pH 5.5, read-out: Average MBC, average of six MRSA isolates, pH 5.5): 0.25 µg/mL | MIC (MRSA isolates; MRSA, pH 5.5, read-out: Average MIC, average of six MRSA isolates, pH 5.5): 0.25 µg/mL | MBC (MRSA isolates; [9]): 1 µg/mL | MIC (MRSA isolates; [9]): 1 µg/mL | MBC (MRSA isolates; [10]): 2 µg/mL | MIC (MRSA isolates; [10]): 1 µg/mL | MBC (MRSA isolates; [11]): 1 µg/mL | MIC (MRSA isolates; [11]): 1 µg/mL | MBC (MRSA isolates; [12]): 6 µg/mL | MIC (MRSA isolates; [12]): 0.5 µg/mL | MBC (MRSA isolates; [13]): 1 µg/mL | MIC (MRSA isolates; [13]): 0.5 µg/mL | MBC (MRSA isolates; MRSA, pH 6.5, TCH 1516, pH 6.5): 1 µg/mL | MIC (MRSA isolates; MRSA, pH 6.5, TCH 1516, pH 6.5): 1 µg/mL | MBC (MRSA isolates; MRSA, pH 6.5, read-out: Average MBC, average of six MRSA isolates, pH 6.5): 2 µg/mL | MIC (MRSA isolates; MRSA, pH 6.5, read-out: Average MIC, average of six MRSA isolates, pH 6.5): 0.83 µg/mL | MBC (MRSA isolates; [14]): 2 µg/mL | MIC (MRSA isolates; [14]): 1 µg/mL | MBC (MRSA isolates; [15]): 6 µg/mL | MIC (MRSA isolates; [15]): 2 µg/mL | MBC (MRSA isolates; [16]): 2 µg/mL | MIC (MRSA isolates; [16]): 2 µg/mL | MBC (MRSA isolates; [17]): 4 µg/mL | MIC (MRSA isolates; [17]): 2 µg/mL | MBC (MRSA isolates; [18]): 4 µg/mL | MIC (MRSA isolates; [18]): 1 µg/mL | MBC (MRSA isolates; MRSA, pH 7.4, TCH 1516, pH 7.4): 2 µg/mL | MIC (MRSA isolates; MRSA, pH 7.4, TCH 1516, pH 7.4): 2 µg/mL | MBC (MRSA isolates; MRSA, pH 7.4, read-out: Average MBC, average of six MRSA isolates, pH 7.4): 3.3 µg/mL | MIC (MRSA isolates; MRSA, pH 7.4, read-out: Average MIC, average of six MRSA isolates, pH 7.4): 1.7 µg/mL | MBC (MRSA isolates; MRSA, read-out: MBC90, 39 evaluated MRSA isolates, CLSI broth microdilution): 4 µg/mL | pH of solution [1]: greater than 10

CCC[C@@H]1C[C@@H](C(=O)N[C@@H]([C@H]2O[C@H](SC)[C@H](O)[C@@H](O)[C@H]2O)[C@H](C)Cl)N(C)C1 [Clindamycin, clindamycin, reference compound]
MBC (MRSA isolates; [2]): > 32 µg/mL | MIC90 (MRSA isolates; [3]): > 32 µg/mL | MIC (MRSA isolate TCH 1516; Staphylococcus aureus, MRSA, 408 h, read-out: MIC after serial passage): 32 µg/mL (≈ 75.3 µM) | increase in MIC (MRSA isolate TCH 1516; serial passage, after 17 days): 256 fold
